Results from article PMC9845987 (Cancer research, 2023).
Read-outs that look alike come from different tables or passages of the source. Each block holds one compound with its values, some of them ahead of it.

Assays:
p-ERK^T202/Y204 = assay: Quantitative immunofluorescence of p-ERK in MeWo cells; type: cell-based, human; conditions: 6 h, different concentrations
p-AKT^S473 = assay: Quantitative immunofluorescence of p-AKT in MeWo cells; type: cell-based, human; conditions: 6 h, different concentrations
p-4EBP1^T37/46 = assay: Quantitative immunofluorescence of p-4EBP1 in MeWo cells; type: cell-based, human; conditions: 6 h, different concentrations
[1] = tested on: NF1^LoF melanoma cell lines; assay: Growth rate inhibition assay; type: cell-based, human; conditions: for Overall drug sensitivity (area over the dose-response curve): NF1^LoF cell lines; for Normalized growth rate (DIP rate) dose response: nine NF1^LoF melanoma cell lines, 7 day-averaged, four concentrations
SYK = SYK (Homo sapiens, UniProt P43405); assay: Biochemical kinase inhibition assay
mTOR = mTOR (Homo sapiens, UniProt P42345); assay: Biochemical kinase inhibition assay; conditions: 10 μM
PI4KB = PI4KB (Homo sapiens, UniProt Q9UBF8); assay: Biochemical kinase inhibition assay; conditions: 10 μM
DNA-PK = DNA-PK (Homo sapiens, UniProt P78527); assay: Biochemical kinase inhibition assay; conditions: 10 μM
MeWo cells = conditions: R406 3.16 μM, 72 h
YUHEF cells = conditions: R406 3.16 μM, 72 h
[2] = tested on: human epidermal primary melanocytes (NHEM-Ad); assay: Growth rate inhibition assay, primary melanocytes; type: cell-based; conditions: highest concentration (1 μM)
p-BLNK^Y96 = assay: Western blot of p-BLNK in IgM-stimulated Ramos cells; type: cell-based, human; conditions: 6 h
COLO792 xenografts = assay: In vivo xenograft assay, COLO792; design: species or system mouse; conditions: 50 mg/kg IP
WM3918 xenografts = assay: In vivo xenograft assay, WM3918; design: species or system mouse; conditions: 50 mg/kg IP
[3] = tested on: p-EGFR^Y1068 in WM3918 xenograft tumors; assay: Xenograft pharmacodynamic Western blot; type: in vivo, mouse; conditions: single dose 100 mg/kg IP; 0.5 h after dosing
[4] = tested on: p-AKT^S473 in WM3918 xenograft tumors; assay: Xenograft pharmacodynamic Western blot; type: in vivo, mouse; conditions: single dose 100 mg/kg IP; 0.5 h after dosing

Compound: COc1ccc(-c2ccc3c(N4CCOC[C@@H]4C)nc(N4CCOC[C@@H]4C)nc3n2)cc1CO [AZD8055]
- Change in p-ERK^T202/Y204 levels (p-ERK^T202/Y204): no significant effect
- Change in p-AKT^S473 levels (p-AKT^S473): decreased p-AKT levels in a dose-dependent manner
- Change in p-4EBP1^T37/46 levels (p-4EBP1^T37/46): potently reduced

Compound: Cc1nc(-c2nc(-c3ccc(OC(F)(F)F)cc3)no2)nn1Cc1cccc(N2CCC(S(C)(=O)=O)CC2)c1 [IACS-010759]
- Overall drug sensitivity (area over the dose-response curve) [1]: similarly sensitive to both IACS-010759 and MTX-216
- Growth inhibition (live cell count, normalized growth rate) ([1]; all tested NF1^LoF cell lines, indicated doses): inhibited growth in a dose-dependent fashion

- IC50 (SYK; SYK IC50, 0.5 nM to 10 μM, ATP at Km,app): ~6 µM
- inhibition at 10 µM (SYK; read-out: % inhibition of SYK): 52%
- Inhibition of mTOR (mTOR): inhibited
- Inhibition of PI4KB (PI4KB): inhibited
- Inhibition of DNA-PK (DNA-PK): inhibited
Compound: CS(=O)(=O)Nc1cc(-c2ccc3ncnc(Nc4ccc(F)c(Cl)c4)c3c2)cnc1Cl [MTX-211, N-(2-chloro-5-(4-((3-chloro-4-fluorophenyl)amino)quinazolin-6-yl)pyridin-3-yl)methanesulfonamide]
- Change in p-ERK^T202/Y204 levels (p-ERK^T202/Y204): no significant effect
- Change in p-AKT^S473 levels (p-AKT^S473): decreased p-AKT levels in a dose-dependent manner
- Change in p-4EBP1^T37/46 levels (p-4EBP1^T37/46): did not decrease p-4EBP1 levels at concentrations below 1 μM

Compound: COc1cc(Nc2ncc(F)c(Nc3ccc4c(n3)NC(=O)C(C)(C)O4)n2)cc(OC)c1OC [R406]
- Reduction of growth rate ([1]; MeWo, YUHEF and WM3918, R406 at 3.16 μM, 7-day): approximately 2 fold
- p-S6 and Ki-67 levels (MeWo cells): reduced p-S6 and Ki-67
- p-S6 and Ki-67 levels (YUHEF cells): reduced p-S6 and Ki-67

Compound: CS(=O)(=O)N1CCN(Cc2cc3nc(-c4cccc5[nH]ncc45)nc(N4CCOCC4)c3s2)CC1 [pictilisib]
- Change in p-ERK^T202/Y204 levels (p-ERK^T202/Y204): no significant effect
- Change in p-AKT^S473 levels (p-AKT^S473): decreased p-AKT levels in a dose-dependent manner
- Change in p-4EBP1^T37/46 levels (p-4EBP1^T37/46): did not decrease p-4EBP1 levels at concentrations below 1 μM

Compound: CC(=O)Nc1cccc(-n2c(=O)n(C3CC3)c(=O)c3c(Nc4ccc(I)cc4F)n(C)c(=O)c(C)c32)c1 [trametinib]
- Normalized growth rate (DIP rate) dose response [1]: potent but less efficacious responses
- Change in p-ERK^T202/Y204 levels (p-ERK^T202/Y204): reduced ERK phosphorylation in a dose-dependent manner
- Change in p-AKT^S473 levels (p-AKT^S473): but not trametinib, decreased p-AKT levels
- Change in p-4EBP1^T37/46 levels (p-4EBP1^T37/46): no effect

Compound: CC(C)Nc1cc(-c2c[nH]c(C(=O)N[C@H](CO)c3cccc(Cl)c3)c2)c(Cl)cn1 [ulixertinib]
- Normalized growth rate (DIP rate) dose response [1]: potent but less efficacious responses

- % inhibition of SYK (SYK; 10 μM, ATP at Km,app): 94%
- Potency on SYK relative to MTX-211 (SYK; ratio of IC50): ~ 21 fold
- IC50 (SYK; read-out: SYK IC50, 0.5 nM to 10 μM, ATP at Km,app): 0.281 µM
- Inhibition of mTOR (mTOR): inhibited
- Inhibition of PI4KB (PI4KB): inhibited
- Inhibition of DNA-PK (DNA-PK): inhibited
Compound: N-(2-chloro-5-(4-((3-chloro-4-fluorophenyl)amino)-3-cyanoquinolin-6-yl)pyridin-3-yl)methanesulfonamide [MTX-216]
- Overall drug sensitivity (area over the dose-response curve) [1]: similarly sensitive to both IACS-010759 and MTX-216
- Normalized growth rate (DIP rate) dose response [1]: consistently cytotoxic
- Cytotoxicity (normalized growth rate) [2]: no cytotoxicity
- Change in p-ERK^T202/Y204 levels (p-ERK^T202/Y204): no significant effect
- Change in p-AKT^S473 levels (p-AKT^S473): decreased p-AKT levels in a dose-dependent manner
- Change in p-4EBP1^T37/46 levels (p-4EBP1^T37/46): did not decrease p-4EBP1 levels at concentrations below 1 μM
- Inhibition of p-BLNK^Y96 levels (p-BLNK^Y96): more efficient in inhibition of p-BLNK in comparison with MTX-211
- Body weight (COLO792 xenografts): no major loss in body weight
- Tumor growth (COLO792 xenografts; 20 days): suppressed tumor growth
- Body weight (WM3918 xenografts): no major loss in body weight
- Tumor growth (WM3918 xenografts; 11 days): suppressed tumor growth
- p-EGFR levels in excised tumors [3]: significant reduction
- p-AKT levels in excised tumors [4]: significant reduction
